A short description of series [1]: Thermogravimetric (TG) analysis of thermal stability. As to conditions: for TG To (Tonset of thermal degradation): nitrogen, 50 to 350 °C. The series is classed as physicochemical. The protocol: The thermogravimetric (TG) studies were carried out with a Perkin–Elmer TGA-7 (Perkin Elmer, Inc. Watham, MA, USA) which was calibrated with alumel and nickel at 10 °C·min^−1. The calibration of the oven temperatures was carried out automatically and mass calibrated with a certified sample of 10 mg (ASTM E617, provided by Perkin Elmer, Inc. Watham, MA, USA). TG analyses were performed under a nitrogen atmosphere with a gas flow of 40 mL·min^−1, from 50 to 350 °C, at a heating rate of 10 °C·min^−1, using a sample of approximately 3 mg, in order to obtain the values of the Tonset and Tmax of the degradation process as well as any associated mass loss.

Series [2] concerns non-malignant mammary-gland-derived (184B5) cell line. In words: MTT cell viability assay, 72 h, 184B5. The series is classed as cell-based. The conditions noted are these: 184B5, 72 h; for GI50: Homo sapiens. On the procedure: (§1) The novel synthetic compounds VA2J, VA4J, VA6G, VA6H, VA6I and VA6J were tested in breast adenocarcinoma (MCF-7) and non-malignant mammary-gland-derived (184B5) cell lines to be able to establish their potency and selectivity. The reference drug used was methylseleninic acid (MSA) as a Se-containing structure with promising in vitro and in vivo results against different tumour types. Results are expressed as the concentration that inhibits 50% cell growth (GI50), the concentration that inhibits completely cell growth (TGI) and the concentration that kills 50% of cells (LD50). The selectivity index (SI) is calculated as GI50(184B5)/GI50(MCF-7).
(§2) Cell lines were purchased from the American Type Culture Collection (ATCC, Barcelona, Spain). MCF7 cell lines were grown in Roswell Park Memorial Institute (RPMI) medium (Gibco, Madrid, Spain) supplemented with 10% fetal bovine serum (FBS; Gibco), 100 units/mL penicillin and […] (Gibco, Madrid, Spain). 184B5 cells were grown in DMEM/F12 medium supplemented with 5% FBS, 1x ITS (Lonza, Barcelona, Spain), 100 nM hydrocortisone (Sigma Aldrich, Madrid, Spain), 2 mM sodium pyruvate (Lonza), 20 ng/mL EGF (Sigma Aldrich, Madrid, Spain), 0.3 nM trans-retinoic acid (Sigma-Aldrich) 100 units/mL penicillin and […]. Cells were maintained at 37 °C and 5% CO2.
(§3) Compounds were dissolved in DMSO at a concentration of 0.01 M. Serial dilutions were prepared with non-supplemented medium. The cytotoxic effect of each compound was tested at eight different concentrations ranging between 0.01 and 100 µM.
(§4) A total of 10^4 cells/well in 96 well-plates were treated with either DMSO or increasing concentrations of the corresponding compound for 72 h and cell viability was determined using the MTT (3-(4,5-dimethylthiazol-2-yl)-2,5-diphenyltetrazolium bromide) (Sigma Aldrich, Madrid, Spain) assay. Briefly, cells were incubated with 50 µL of MTT (2 mg/mL stock) for 4 h. The medium was then removed by aspiration and the formazan crystals were dissolved in 150 µL of DMSO. The absorbance was measured at 550 nm in a microplate reader (Sunrise, Tecan, Männedorf, Switzerland). […] Data were obtained from at least three independent experiments performed in quadruplicate.

A short description of series [3]: DSC successive melting-recrystallization cycles, polymorphic behaviour. In kind it is physicochemical. Also noted: key: I: Compounds that show a polymorphic phase transition into an amorphous or mainly amorphous solid form after a first melting–cooling scan; II: Compounds that change into a new polymorphic form with a different Tonset of fusion than the one observed at the first melting–recrystallization scan after cooling; III: These compounds show a fusion process without modifications in the thermal behaviour after an initial fusion–recrystallization cycle; IV: Compounds that show recrystallization or other types of phase transition of the original form into another crystalline one in the first heat scan; V: Compounds without fusion processes at the range of temperatures studied; *: fusion with decomposition. As to conditions: 10 °C/min. On the procedure:
To establish general polymorphic behaviours, samples of all the compounds synthetized (Figure 1) were exposed to successive cycles of melting–recrystallization using DSC. Calorimetric analyses were performed before the beginning of the degradation process (Table 6). […] This behaviour was shown by several compounds: VA1C, VA2E, VA8E, series H, VA6I, VA8J, VA6M and VA8M. DSC and PXRD results of compound VA7H are shown as supplementary material (Figures S1 and S2 and Table S1). • Behaviour II—Compounds that change into a new polymorphic form with a different Tonset of fusion than the one observed at the first melting–recrystallization scan after cooling. These compounds are VA7E and VA8O. DSC and PXRD results of compound VA7E are shown as supplementary material (Figures S3 and S4, Table S2). • Behaviour III—These compounds show a fusion process without modifications in the thermal behaviour after an initial fusion–recrystallization cycle. Consequently, there is no evidence of polymorphic behaviour. The compounds VA2C, VA2M, VA4J and VA5O belong to this group. DSC and PXRD results of compound VA2M are shown as supplementary material (Figures S5 and S6, Table S3). • Behaviour IV—Compounds that show recrystallization or other types of phase transition of the original form into another crystalline one in the first heat scan. In the successive cycles of melting–recrystallization, the new form may not alter its crystalline form or transit to another polymorphic form. Compounds VA6E, VA7J and VA7M show this behaviour. • Behaviour V—Compounds without fusion processes at the range of temperatures studied.
For calorimetric studies a Perkin–Elmer DSC diamond calibrated with indium and zinc (provided by Perkin–Elmer (Perkin Elmer, Inc. Watham, MA, USA) and fabricated according to guideline ISO35) at 10 °C·min^−1 and nitrogen flow of 20 mL·min^−1 was employed. The gas connected to the equipment was nitrogen with a purity of 99.999%. Calorimetric analyses were carried out in aluminium capsules for volatilities of 10 μL, at a heating rate of 10 °C·min^−1, using a sample of approximately 3 mg, in order to establish the Tonset, Tmax and the enthalpy of fusion ∆Hf.
The calorimetric analyses started with the study of the thermal behaviour of the compounds before the process of degradation in order to evidence the possible existence of polymorphism. For this preliminary study, samples of all the compounds were exposed to successive cycles of heating–cooling. All samples were heated from 50 °C to temperatures 15–20 °C below Tonset of the degradation process, in order to ensure that compounds were not degraded (Table 6). After melting the samples, they were left at room temperature for enough time to allow the compounds to recrystallize before the successive thermal process. Additional cycles of heating–cooling were performed if polymorphism was detected.

Series [4] deals with breast adenocarcinoma (MCF-7) cell line. In words: MTT cell viability assay, 72 h, MCF-7. In kind it is cell-based, human. As to conditions: for SI (selectivity index): GI50(184B5)/GI50(MCF-7); for TGI / LD50 / GI50: MCF-7, 72 h, MTT; for TGI: concentration that completely inhibits cell growth; for LD50: concentration that kills 50% of cells; for GI50: concentration that inhibits 50% cell growth. The protocol: as §1, §2, §3, §4
For orientation: Tetrazolium assays rely on reduction of a dye to a coloured formazan, in cell work by metabolically active cells.

Series [5] can be described thus: Stability after stress conditions by HPLC/UV-DAD. As to conditions: 0, 4 and 24 h; for Stability to oxidation: H2O2 3%; for Stability to acid hydrolysis: HCl 1 M; for Stability to basic (alkaline) hydrolysis: NaOH 0.1 M. In kind it is physicochemical. On the procedure: The stability of compounds VA4J (without polymorphic behaviour) and VA6E and VA7J (with polymorphic behaviour) was investigated after the application of diverse stress conditions: acid hydrolysis (HCl 1 M), basic hydrolysis (NaOH 0.1 M) and oxidation (H2O2 3%). Chromatographic studies using HPLC/UV-DAD were performed with this purpose.
Chromatographic studies were performed using an HPLC/UV-DAD (HP 1200, Agilent Technologies. Santa Clara, CA, USA) with a C18 column (Gemini-NX 150 × 4.6 mm, 5 µm) from Phenomenex (Phenomenex. Torrance, CA, USA). The mobile phase was a mixture of acetonitrile/water (80:20; v/v) for compound VA4J, (50:50; v/v) for VA6E and (80:20, 0.1% formic acid; v/v) for compound VA7J. The injection volume was 50 µL and the flow rate was 1 mL/min. Chromatography was performed at 35 °C. UV-DAD detection was established at λ = 254 nm.
For stability evaluation in stress conditions, working solutions of 47.6 µg/mL were prepared by diluting 20 µL of each standard solution in 200 µL of acetonitrile and 200 µL of (a) 1 M HCl, (b) 0.1 M NaOH and (c) 3% H2O2. Data were recorded at zero time and after 4 and 24 h of exposure.

Series [6] has as its system 1205Lu (melanoma), A549 (lung), DU145 (prostate), HCT116 (colon), PANC-1 (pancreas) and BxPC3 (pancreas). Also noted: method as in PMID 26922233. The conditions noted are these: all six cell lines, even at short time points; MTT conditions slightly different; cited from earlier work.

A value given as a limit tells only on which side of the number the result lay.

By TGI is commonly meant the concentration at which net growth stops. The term GI50 denotes the concentration giving 50% growth inhibition. As a reminder, the IC50 is the concentration that inhibits the measured activity by half.

Consider `COc1cc2oc(=O)cc(CSC#N)c2cc1OC` [VA6I, (6,7-Dimethoxy-2-oxo-2H-chromen-4-yl)methyl Thiocyanate], for which, in series [1] (10 °C/min), the “TG To (Tonset of thermal degradation)” value is 246.9 °C. Moreover, in series [2], the LD50 was over 100 µM, the TGI was over 100 µM and halving of growth (GI50) required 2.26 µM. The “DSC Behaviour (polymorphic/calorimetric behaviour)” value in series [3] was “I”. In addition, in series [4], the “SI (selectivity index)” value is 0.50, the TGI was over 100 µM and the LD50 is over 100 µM.

Consider `Cl.N=C(N)Sc1nc2ccccc2nc1S` [VA2J, 3-Mercaptoquinoxalin-2-yl Carbamimidothioate Hydrochloride], for which, in series [1] (10 °C/min), the “TG To (Tonset of thermal degradation)” value came to 199.2 °C. In series [2], the LD50 was 20.48 µM, the TGI is 15.97 µM and it took 12.5 µM to inhibit growth by half (GI50). The “DSC Behaviour (polymorphic/calorimetric behaviour)” value in series [3] is “*”. In series [4], the “SI (selectivity index)” value amounted to 5.66, the TGI was 13.90 µM and the LD50 was determined as 44.02 µM.

`N#CSCc1nc2ccccc2nc1CSC#N` [VA6J, Quinoxalin-2,3-diyldimethanediyl Bisthiocyanate]: the “TG To (Tonset of thermal degradation)” value in series [1] (10 °C/min) was 165.0 °C. In addition, in series [2], the LD50 was 94.62 µM, the TGI came to 69.80 µM and the GI50 is 39.8 µM. Moreover, the “DSC Behaviour (polymorphic/calorimetric behaviour)” value in series [3] is “*”. In series [4], the “SI (selectivity index)” value turned out to be 2.15, the TGI amounted to 50.55 µM and the LD50 came to 83.93 µM. The compound also displayed a GI50 in series [4] (Homo sapiens, MCF7, 72 h) of 18.5 µM.

As to `N#CSCc1ccc2c(c1)C(=O)c1ccccc1C2=O` [VA6G, (9,10-Dioxo-9,10-dihydroanthracen-2-yl)methyl Thiocyanate], the “TG To (Tonset of thermal degradation)” value in series [1] (10 °C/min) amounted to 238.3 °C. Also, in series [2], the LD50 was 64.84 µM, the concentration for total growth inhibition (TGI) turned out to be 34.32 µM and the GI50 came out at 14.3 µM. The “DSC Behaviour (polymorphic/calorimetric behaviour)” value in series [3] is recorded as “V”. For the same compound, in series [4], the “SI (selectivity index)” value is on record as 3.99, the TGI was 23.95 µM and the LD50 was found to be 67.27 µM.

Consider `N=C(N)[Se]Cc1nc2ccccc2nc1C[Se]C(=N)N` [VA7J], for which, in series [5], the Stability to oxidation result is reported as “totally degraded”, the “Stability to acid hydrolysis” value is given as “stable” and the “Stability to basic (alkaline) hydrolysis” value is “only a minor degradation”. Besides, in series [1] (10 °C/min), the “TG debromhidration process temperature” value was 173 °C. Moreover, in series [3], the “DSC Behaviour (polymorphic/calorimetric behaviour)” value is on record as “IV”. In addition, the IC50 in series [6] was under 10 µM.

In the case of `N#CSCc1ccc2ccccc2n1` [VA6H, Quinolin-2-ylmethyl Thiocyanate], the “TG To (Tonset of thermal degradation)” value in series [1] (10 °C/min) amounted to 139.1 °C. Further, in series [2], the LD50 was over 100 µM, the TGI was 75.84 µM and the GI50 came out at 27.8 µM. In series [3], the “DSC Behaviour (polymorphic/calorimetric behaviour)” value was “I”. In addition, in series [4], the “SI (selectivity index)” value amounted to 3.25, the TGI is 14.83 µM, the GI50 was 8.53 µM and the LD50 is 24.18 µM. Also, the GI50 in series [4] (Homo sapiens, MCF7, 72 h) was under 10 µM.

Take `CSc1nc2ccccc2nc1SC` [VA4J, 2,3-Bis(methylsulfanyl)quinoxaline]: in series [5], the Stability to oxidation result is reported as “stable”, the “Stability to acid hydrolysis” value was “stable” and the “Stability to basic (alkaline) hydrolysis” value is “stable”. Also, the “TG To (Tonset of thermal degradation)” value in series [1] (10 °C/min) stood at 197.42 °C. Besides, the “TG decomposition or desolvation processes in the temperature range studied” value in series [1] (range 100–135 °C for VA4J, 94–108 °C for VA6E) is reported as “can be excluded”. In series [2], the LD50 is over 100 µM, the TGI is over 100 µM and the GI50 turned out to be 52.5 µM. Also, the “DSC Behaviour (polymorphic/calorimetric behaviour)” value in series [3] is recorded as “III”. Besides, in series [4], the “SI (selectivity index)” value is given as 51.25, the TGI was over 100 µM and the LD50 is over 100 µM. Moreover, the “SI relative to MSA” value in series [4] (SI of compound compared with SI of MSA) is given as “over 50 times”.

Values taken from PMC6152329, “Antitumoural Sulphur and Selenium Heteroaryl Compounds: Thermal Characterization and Stability Evaluation” (Molecules : A Journal of Synthetic Chemistry and Natural …, 2017).
